Measured values from patent US20250154143A1, “PRODRUGS FOR USE IN THE TREATMENT OF TISSUE DAMAGE” (UCL BUSINESS LTD, priority 2021, published 2025).
In brackets after ≈: the same amount, converted by molar mass. Counter-ions that a name gives are not always drawn.

How the values were obtained:
[1] = Thermodynamic solubility in PBS, FaSSIF and SGF; type: physicochemical; details: thermodynamic from solid, room temperature
Protocol: A known quantity of the Examples and control compounds were weighed into a suitable vessel (whatman miniuniprep vials) and a known volume of the required media was added (e.g. Simulated Gastric Fluid pH 1.2 [SGF], Simulated Fasted State Intestinal Fluid pH 6.5 [FaSSIF] or Phosphate Buffered Saline pH 7.4 [PBS]). The samples were subjected to vortex mixing for 2 minutes followed by agitation on a shaker for 24 hours at room temperature at 800 rpm. The samples were then centrifuged for 20 minutes at 4000 rpm, the miniuniprep vials compressed and the filtrates analysed by HPLC (Waters Xbridge C18 4.6×100 mm, mobile phase A: 0.1% TFA in water, mobile phase B: 0.1% TFA in acetonitrile).

[2] = Stability in FaSSIF, SGF and PBS; type: physicochemical; details: 37° C.
Protocol: 10 μL of a 10 mM stock solution of the Examples were dissolved in 490 μL DMSO to afford […] working solution
Dissolve 0.04 g NaCl and 0.064 g pepsin in 0.14 mL HCl and add sufficient water to 20 mL volume. The pH of the test solution was 1.20±0.05.
0.056% (w/v) lecithin, 0.161% (w/v) sodium taurocholate, 0.39% (w/v) monobasic potassium phosphate, 0.77% (w/v) potassium chloride, deionized H2O. The pH of the test solution was 6.5±0.05.
30 mL of 10×PBS (pH7.4) was added into a 50 mL flask and diluted with water. The solution was mixed well and adjusted to pH 7.4 with 1N HCl.
Protocol for Determining Stability 2 μL of the 200 μL working solution of the Examples was added into 96-deep-well plates for T0, T60, T120, T360 and T1440 timepoints. Duplicates were prepared.
Stability studies were commenced by the addition of 198 μL of the required media (e.g. Simulated Gastric Fluid pH 1.2 [SGF], Simulated Fasted State Intestinal Fluid pH 6.5 [FaSSIF]) and Phosphate Buffered Saline pH 7.4 [PBS]) to each well except T0. The samples were incubated at 37° C. at 600 rpm for the appointed time. The samples at the corresponding timepoint were removed and immediately mixed with 400 μL of 0.3% FA in MeCN containing 200 ng/mL tolbutamide and labetalol (internal standard). 200 μL of suspension was removed and mixed with 400 μL of 0.3% FA in cold MeCN containing 200 ng/mL tolbutamide and labetalol. The samples were centrifuged at 4000 rpm at 4° C. for 20 minutes. 60 μL of the supernatant was removed and mixed with 180 μL purified water and thoroughly mixed and analysed by LCMS (Shimadzu LC 30-AD, ACQUITY UPLC HSS T3 1.8 um 2.1*50 mm Part No. 186003538, with mobile phase A: 0.1% formic acid in water, mobile phase B: 0.1% formic acid in MeCN. Formation of parent was also monitored as a metabolite.
Samples were analysed by Mass Spectrometry QTRAP 6500+

human CRP = target: T1, human CRP (Homo sapiens, UniProt P02741); details: rat acute myocardial infarction model, rats receiving human CRP; cited from earlier work
T1 construct: The final concentrations were 0.73 μM native pentameric CRP; from tissue
T1 sequence (P02741 19-224): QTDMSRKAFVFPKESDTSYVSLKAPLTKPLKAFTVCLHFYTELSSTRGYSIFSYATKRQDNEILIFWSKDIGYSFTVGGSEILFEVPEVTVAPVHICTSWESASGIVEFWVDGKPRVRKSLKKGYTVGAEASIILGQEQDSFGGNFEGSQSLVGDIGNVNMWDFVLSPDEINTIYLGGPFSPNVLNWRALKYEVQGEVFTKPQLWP

[3] = Phosphate Buffered Saline (PBS), aqueous buffer, PBS pH 7.4, 24 hour timepoint
[4] = Simulated Fasted State Intestinal Fluid (FaSSIF), FaSSIF pH 6.5, 24 hour timepoint
[5] = Simulated Gastric Fluid (SGF), simulated gastric fluid, SGF pH 1.2, 24 hour timepoint

| SMILES | solubility thermodynamic at 24 h [1, 3] | solubility thermodynamic at 24 h [1, 4] | solubility thermodynamic at 24 h [1, 5] | FaSSIF (pH 6.5) % remaining ([2]; FaSSIF pH 6.5, 6 hr) | FaSSIF (pH 6.5) % remaining ([2]; FaSSIF pH 6.5, 24 h) | PBS (pH 7.4) % remaining ([2]; PBS pH 7.4, 6 h) | PBS (pH 7.4) % remaining ([2]; PBS pH 7.4, 24 h) | SGF (pH 1.2) % remaining ([2]; SGF pH 1.2, 6 h) | SGF (pH 1.2) % remaining ([2]; SGF pH 1.2, 24 h) | Effect on adverse effects of human CRP (human CRP) |
| --- | --- | --- | --- | --- | --- | --- | --- | --- | --- | --- |
| COC(=O)[C@H](NC(=O)c1ccc(C(=O)N[C@@H](C(=O)OC)C2CN3CCC2CC3)cc1)C1CN2CCC1CC2 (stereo partly drawn) [Example 1, (R,2R,2′R)-2,2′-(terephthaloylbis(azanediyl))bis(2-((R)-quinuclidin-3-yl)acetic acid) bis methyl ester] | 1220 µg/mL (≈ 2.31 mM) | 4690 µg/mL (≈ 8.9 mM) | 5930 µg/mL (≈ 11.3 mM) | 98.3% | 113.3% | 84.07% | 55.89% | 101.2% | 92.6% |  |
| C[N+](C)(C)CCOP(=O)([O-])OCCCCCCOP(=O)([O-])OCC[N+](C)(C)C [BPC6, bis(phosphocholine)hexane] |  |  |  |  |  |  |  |  |  | completely abrogate the adverse effects of human CRP |
| C[N+](C)(C)CCOP(=O)(O)OCCCCCCCCOP(=O)(O)OCC[N+](C)(C)C [BPC8, bis(phosphocholine)octane] |  |  |  |  |  |  |  |  |  | completely abrogate the adverse effects of human CRP |
| CC(C)OC(=O)[C@H](NC(=O)c1ccc(C(=O)N[C@@H](C(=O)OC(C)C)C2CN3CCC2CC3)cc1)C1CN2CCC1CC2 (stereo partly drawn) [Example 13, (R,2R,2′R)-2,2′-(terephthaloylbis(azanediyl))bis(2-((R)-quinuclidin-3-yl)acetic acid) bis isopropyl ester] | 4560 µg/mL (≈ 7.83 mM) | 5200 µg/mL (≈ 8.93 mM) | 5140 µg/mL (≈ 8.82 mM) | 99.7% | 110.4% | 103.43% | 104.61% | 107.2% | 100.0% |  |
| CCOC(=O)[C@H](NC(=O)c1ccc(C(=O)N[C@@H](C(=O)OCC)C2CN3CCC2CC3)cc1)C1CN2CCC1CC2 (stereo partly drawn) [Example 12, (R,2R,2′R)-2,2′-(terephthaloylbis(azanediyl))bis(2-((R)-quinuclidin-3-yl)acetic acid) bis ethyl ester] | 5520 µg/mL (≈ 9.94 mM) | 4540 µg/mL (≈ 8.18 mM) | 4000 µg/mL (≈ 7.22 mM) | 105.0% | 95.2% | 84.33% | 87.14% | 101.2% | 92.3% |  |
| O=C(N[C@@H](C(=O)O)C1CN2CCC1CC2)c1ccc(C(=O)N[C@@H](C(=O)O)C2CN3CCC2CC3)cc1 (stereo partly drawn) [APL-2191.2HCl, (R,2R,2′R)-2,2′-(terephthaloylbis(azanediyl))bis(2-((R)-quinuclidin-3-yl)acetic acid) bis hydrochloride salt] | 1690 µg/mL | 2510 µg/mL | 4560 µg/mL |  |  |  |  |  |  |  |
